Assay results from patent US8106204B2, “Substituted 2-amino-4-phenyldihydroquinolines, processes for their preparation, pharmaceutical compositions and methods for their use” (Sanofi-Aventis, priority 2006, dated 2012).
Where a name gives a salt, the structure may show the parent alone.

Molecular target: T1, NHE-3 (Homo sapiens, UniProt P48764)
T1 sequence (P48764 26-834): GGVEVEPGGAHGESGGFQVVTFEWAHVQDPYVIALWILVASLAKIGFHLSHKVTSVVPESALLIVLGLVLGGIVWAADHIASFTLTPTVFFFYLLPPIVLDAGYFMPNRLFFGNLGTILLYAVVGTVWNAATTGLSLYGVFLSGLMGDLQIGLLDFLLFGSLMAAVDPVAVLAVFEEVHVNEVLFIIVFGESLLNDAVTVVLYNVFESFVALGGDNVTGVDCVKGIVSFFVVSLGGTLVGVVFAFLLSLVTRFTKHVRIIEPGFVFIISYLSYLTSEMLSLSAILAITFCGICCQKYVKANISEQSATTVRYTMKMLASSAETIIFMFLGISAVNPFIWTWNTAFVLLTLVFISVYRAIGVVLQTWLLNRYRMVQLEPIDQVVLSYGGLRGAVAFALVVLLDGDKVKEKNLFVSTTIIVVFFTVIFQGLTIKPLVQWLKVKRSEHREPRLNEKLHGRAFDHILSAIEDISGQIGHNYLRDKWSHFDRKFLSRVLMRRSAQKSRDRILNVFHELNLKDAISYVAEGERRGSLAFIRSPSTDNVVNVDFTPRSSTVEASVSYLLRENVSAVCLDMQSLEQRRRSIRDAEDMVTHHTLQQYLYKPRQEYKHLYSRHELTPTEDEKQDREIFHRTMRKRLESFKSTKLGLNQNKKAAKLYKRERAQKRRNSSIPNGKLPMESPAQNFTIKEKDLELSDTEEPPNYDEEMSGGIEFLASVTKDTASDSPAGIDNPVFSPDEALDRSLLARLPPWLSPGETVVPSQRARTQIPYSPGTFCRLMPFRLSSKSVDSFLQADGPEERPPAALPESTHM
Assay: Determination of the NHE-inhibitory effect (recovery of intracellular pH after acidification, BCECF fluorescence)
Type: cell-based
Settings: pH recovery recorded for three minutes with NHE-3; BCECF-loaded cells
Method: Description of Assay: Determination of the NHE-Inhibitory Effect In this assay, the recovery of the intracellular pH (pHj) after an acidification which occurs even under bicarbonate-free conditions with functional NHE was determined. To this end, the pHj was determined using the pH-sensitive fluorescent dye BCECF (Calbiochem, the precursor BCECF-AM was employed). The cells were initially loaded with BCECF. The BCECF fluorescence was determined in a ratio fluorescence spectrometer (Photon Technology International, South Brunswick, N.J., USA) with excitation wavelengths of 505 and 440 nm and an emission wavelength of 535 nm and converted into the pHj using calibration plots. The cells had been incubated in NH4Cl buffer (pH 7.4) for the BCECF loading (NH4Cl buffer: 115 mM NaCl, 20 mM NH4Cl, 5 mM KCl, 1 mM CaCl2, 1 mM MgSO4, 20 mM Hepes, 5 mM glucose, 1 mg/ml BSA; a pH of 7.4 was adjusted with 1 M NaOH). The intracellular acidification was induced by adding 975 μl of an NH4Cl-free buffer (see below) to 25 μl aliquots of the cells incubated in NH4Cl buffer. The subsequent rate of pH recovery was recorded for two minutes with NHE1, five minutes with NHE2 and three minutes with NHE-3. To calculate the inhibitory power of the tested substances, the cells were initially investigated in buffers with which there was complete or absolutely no pH recovery. For complete pH recovery (100%), the cells were incubated in Na^+-containing buffer (133.8 mM NaCl, 4.7 mM KCl, 1.25 mM CaCl2, 1.25 mM MgCl2, 0.97 mM Na2HPO4, 0.23 mM NaH2PO4, 5 mM Hepes, 5 mM glucose, a pH of 7.0 was adjusted with 1 M NaOH). To determine the 0% value, the cells were incubated in an Na^+-free buffer (133.8 mM choline chloride, 4.7 mM KCl, 1.25 mM CaCl2, 1.25 mM MgCl2, 0.97 mM K2HPO4, 0.23 mM KH2PO4, 5 mM Hepes, 5 mM glucose, a pH of 7.0 was adjusted with 1 M NaOH). The substances to be tested were made up in the Na^+-containing buffer. The recovery of the intracellular pH at each tested concentration of a substance was expressed as a percentage of the maximum recovery. The IC50 of the respective substance for the individual NHE subtypes was calculated from the percentages of pH recovery using the Sigma Plot program.

IC50 [µM] | SMILES
10.9 | CCNC1=Nc2ccc(Cl)cc2C(c2ccc(N)cc2)C1 (stereo not shown) [Example 2, 4-(4-Aminophenyl)-6-chloro-2-ethylamino-3,4-dihydroquinoline hydrochloride]
9.19 | CCN(CC)C1=Nc2ccc(Cl)cc2C(c2ccc(N)cc2)C1 (stereo not shown) [Example 3, 4-(4-Aminophenyl)-6-chloro-2-diethylamino-3,4-dihydroquinoline hydrochloride]
13.8 | CCN(CC)C1=Nc2ccc(Cl)cc2C(c2ccc(NC(=O)NCCN(C)C)cc2)C1 (stereo not shown) [Example 4, N-(2-Dimethylaminoethyl)-N′-4-[(6-chloro-3,4-dihydro-2-diethyl-aminoquinolin-4-yl)phenyl]urea hydrochloride]
4.39 | NC1=Nc2ccc(Cl)cc2C(c2ccc(N)cc2)C1 (stereo not shown) [Example 1, 2-Amino-4-(4-aminophenyl)-6-chloro-3,4-dihydroquinoline hydrochloride]
